{"source": "patent US20130064812A1", "about": "“COMBINATION THERAPIES FOR HEMATOLOGIC MALIGNANCIES” (Gilead Calistoga LLC, priority 2011, published 2013)", "key": {"PI3Kα": {"target": "PI3Kα (Mus musculus, UniProt P42337)", "sequence (P42337 whole entry, canonical isoform)": "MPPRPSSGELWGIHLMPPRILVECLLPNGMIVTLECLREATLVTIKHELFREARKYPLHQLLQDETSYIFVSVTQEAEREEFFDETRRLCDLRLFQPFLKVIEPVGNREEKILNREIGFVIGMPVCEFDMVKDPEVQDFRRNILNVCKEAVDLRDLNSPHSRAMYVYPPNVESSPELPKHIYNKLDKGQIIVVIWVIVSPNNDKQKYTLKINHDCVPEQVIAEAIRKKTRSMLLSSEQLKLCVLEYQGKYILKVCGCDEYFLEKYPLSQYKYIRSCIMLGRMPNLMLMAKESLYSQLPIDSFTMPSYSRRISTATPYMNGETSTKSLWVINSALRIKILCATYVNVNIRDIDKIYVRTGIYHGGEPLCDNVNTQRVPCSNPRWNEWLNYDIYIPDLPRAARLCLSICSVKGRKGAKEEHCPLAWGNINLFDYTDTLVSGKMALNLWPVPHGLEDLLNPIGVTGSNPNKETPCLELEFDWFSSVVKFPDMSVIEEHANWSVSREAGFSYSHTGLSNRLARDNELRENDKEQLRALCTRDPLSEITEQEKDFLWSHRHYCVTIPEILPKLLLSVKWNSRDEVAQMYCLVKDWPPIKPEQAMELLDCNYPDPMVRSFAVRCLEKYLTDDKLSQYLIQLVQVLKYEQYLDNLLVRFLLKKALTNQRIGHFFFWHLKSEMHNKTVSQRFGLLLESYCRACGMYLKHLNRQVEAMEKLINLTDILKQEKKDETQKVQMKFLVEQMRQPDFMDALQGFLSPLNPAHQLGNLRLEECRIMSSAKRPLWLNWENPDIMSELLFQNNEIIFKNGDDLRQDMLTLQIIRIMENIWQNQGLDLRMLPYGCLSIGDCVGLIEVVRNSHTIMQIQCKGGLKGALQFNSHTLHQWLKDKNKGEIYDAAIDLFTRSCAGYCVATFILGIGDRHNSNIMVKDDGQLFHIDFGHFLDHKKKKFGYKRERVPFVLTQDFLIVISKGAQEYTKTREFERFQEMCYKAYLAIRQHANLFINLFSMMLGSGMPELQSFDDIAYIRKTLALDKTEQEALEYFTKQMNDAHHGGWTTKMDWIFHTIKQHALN", "sequence (P26450 whole entry partner, canonical isoform)": "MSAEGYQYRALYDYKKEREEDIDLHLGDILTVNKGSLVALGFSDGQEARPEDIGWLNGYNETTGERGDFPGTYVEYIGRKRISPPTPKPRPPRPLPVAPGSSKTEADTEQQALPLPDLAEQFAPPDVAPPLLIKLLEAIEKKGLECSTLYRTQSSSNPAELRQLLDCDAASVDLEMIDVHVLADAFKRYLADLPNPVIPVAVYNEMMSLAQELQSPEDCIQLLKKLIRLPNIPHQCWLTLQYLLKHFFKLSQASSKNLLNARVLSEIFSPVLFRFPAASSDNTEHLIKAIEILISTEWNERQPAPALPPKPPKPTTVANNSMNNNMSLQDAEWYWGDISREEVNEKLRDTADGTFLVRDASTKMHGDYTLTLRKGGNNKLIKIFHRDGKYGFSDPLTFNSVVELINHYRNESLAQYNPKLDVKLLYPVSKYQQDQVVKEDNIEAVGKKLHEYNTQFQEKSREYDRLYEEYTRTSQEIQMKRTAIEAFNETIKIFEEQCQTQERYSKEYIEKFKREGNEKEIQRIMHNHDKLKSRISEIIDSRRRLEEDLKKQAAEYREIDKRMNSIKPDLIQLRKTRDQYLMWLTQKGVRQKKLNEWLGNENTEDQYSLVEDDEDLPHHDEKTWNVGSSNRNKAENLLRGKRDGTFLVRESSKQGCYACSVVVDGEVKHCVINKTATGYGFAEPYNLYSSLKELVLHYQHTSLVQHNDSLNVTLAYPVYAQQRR", "assay": "Isoform specific cell-based assay: PDGF induced pAKT in Swiss-3T3 fibroblasts", "conditions": "Fibroblast Cell Line, n = 12", "experimental": "Swiss-3T3 fibroblasts and RAW-264 were seeded on a 96-well tissue culture plate and allowed to reach at least 90% confluency. […] Akt phosphorylation and total AKT was detected by ELISA. […] Results are expressed as relative [^3H] thymidine incorporation induced by IgM crosslinking."}, "AKT and ERK1/2": {"test_system": "AKT and ERK1/2", "assay": "AKT and ERK1/2 in HuVEC (immunoblot)", "format": "cell-based, human", "conditions": "8 h", "text": "Actin was used as a loading control."}, "CLL patients": {"test_system": "CLL patients", "assay": "Samples from CLL patients undergoing treatment (phospho-flow, plasma cytokines)", "format": "in vivo, human"}, "CLL": {"test_system": "CLL", "assay": "ALC and lymphadenopathy in a patient with CLL", "format": "in vivo, human", "conditions": "1 cycle (28 days) oral", "experimental": "This example provides data relating to the concentration of absolute lymphocyte count (ALC) in the blood of a patient with CLL after 1 cycle (28 days) of treatment with oral administration of the compound of formula I. The blood ALC concentration was measured over a period of 4 weeks after completion of one cycle of treatment. A 55% decrease in lymphocytosis and a 38% decrease in lymphadenopathy as a result of treatment were observed. A marked decrease in ALC concentration is observed between week 1 and week 2, FIG. 13."}, "DLBCL cell lines": {"test_system": "DLBCL cell lines", "assay": "pAKT in DLBCL cell lines", "format": "cell-based"}, "[1]": {"test_system": "previously treated B-cell malignancies (iNHL, CLL)", "assay": "Clinical study, combination with rituximab or bendamustine, 49 patients (Example 42)", "conditions": "human, in vivo", "text": "49 patients were enrolled in the study, including 27 with iNHL and 22 with CLL. At the baseline, patients had adverse prognostic characteristics, including older age, bulky adenopathy, and refractory disease. All patients had received ≧1 prior treatment regimen and some had received as many 9 prior regimens. Prior treatment included rituximab, alkylating agents and/or fludarabine; the majority of patients with iNHL had been treated with prior anthracycline-containing therapy. Follow-up was early in many patients, with durations of therapy ranging from 1 to 12 cycles.\nAll patients received the compound of formula I, either 100 mg orally twice per day (BID) or 150 mg orally twice per day (BID) for as long as the patient was benefiting. Patients also received either rituximab 375 mg/m^2 administered weekly for 8 weeks, starting on Day 1 of Cycle 1, or bendamustine 90 mg/m^2 administered on Days 1 and 2 of each cycle for 6 cycles. Tumor response was evaluated according to standard criteria."}, "[2]": {"test_system": "CLL cells with purified B-cells", "assay": "IgM production by B-cells cultured with treated CLL cells (ELISA)", "format": "cell-based, human", "conditions": "0.5 μM lenalidomide and/or 10 μM compound, 48 hours, N=6; p<0.0001", "experimental": "Quantization of IgM was determined. Briefly, lenalidomide-treated or vehicle control-treated CLL cells, were irradiated and placed in culture with target, purified B-cells, in the absence or presence of PWM ([…]).\nGiven the importance of the CD40-CD154 axis for lenalidomide-treated CLL cells to promote normal B-cells to produce immunoglobulin, the compound of formula I was assessed to see whether it could prevent this occurrence. […] CLL cells were irradiated (20 Gy) and placed in culture with purified B-cells, in the absence or presence of 5 μg/mL PWM. Quantification of IgM was determined by ELISA analysis."}, "[3]": {"test_system": "CD19+ cells from CLL patients", "assay": "mRNA expression in CD19+ CLL cells (RT-PCR)", "format": "cell-based, human", "conditions": "0.5 μM lenalidomide and/or 10 μM compound, 48 hours", "experimental": "RNA was extracted using TRIzol reagent (Invitrogen) and cDNA was prepared using a SuperScript First-Strand Synthesis System (Invitrogen). Real-Time PCR was performed using pre-designed TaqMan® Gene Expression Assays and ABI Prism 7700 sequence detection system (Applied Biosystems, Foster City, Calif.).\nRNA was extracted and converted to cDNA and RT-PCR analysis was done to determine quantities of CD40, CD86 and CD154 mRNA.\nLastly, lenalidomide treatment of CLL cells in culture was tested to determine whether it could promote tumor cell production of vascular endothelial growth factor (VEGF) and basic fibroblast growth factor (b-FGF). […] RNA was extracted and converted to cDNA and RT-PCR analysis was done to determine quantities of bFGF.\nRNA was extracted and converted to cDNA and RT-PCR analysis was done to determine quantities of VEGF"}, "LB cells": {"test_system": "LB cells", "assay": "LB cell proliferation with or without BMSCs ([3H]-thymidine uptake)", "format": "cell-based, human", "conditions": "0.625 μM-10 μM, 48 hours, presence of BMSC", "experimental": "Cell proliferation was assessed using [^3H]-thymidine uptake assay. All data represent mean (±SD) of triplicate experiment."}, "[4]": {"test_system": "patient chronic lymphocytic leukemia (CLL) cells", "assay": "Apoptosis of patient CLL cells (Annexin V-FITC/PI)", "format": "cell-based, human", "experimental": "Peripheral blood was obtained from patients with B-CLL through the CLL Research Consortium from Ohio State University. Primary CD19-positive cells were isolated using Rosette-Sep (StemCell Technologies). Cells were maintained in RPMI 1640 (Invitrogen) supplemented with 10% heat-inactivated fetal bovine serum, 2 mmol/L L-glutamine, and penicillin (100 units/mL)/streptomycin (100 μg/mL; Invitrogen) at 37° C., 5% CO2, and high humidity. […] After incubation for 10 minutes at room temperature in a light-protected area, the specimens were quantified by flow cytometry on a FACScan™ (Becton Dickinson)."}, "INA-6 and LB MM cells": {"test_system": "INA-6 and LB MM cells", "assay": "Autophagy / AVO development in MM cells", "format": "cell-based, human", "experimental": "To detect and quantify AVOs in compound 1 or 3MA-treated cells, vital staining was performed for 15 min with acridine orange at a final concentration of 1 μg/ml. Samples were examined under a fluorescence microscope.\nAutophagosome formation was defined by the accumulation of LC3; arrows indicate autophagosomes, FIG. 33A.\nGAPDH served as a loading control."}, "[5]": {"test_system": "relapsed or refractory indolent B-cell NHL and CLL", "assay": "Clinical study, combination with rituximab or bendamustine, 20 patients (Example 39)", "conditions": "human, in vivo", "experimental": "20 patients were enrolled, including 12 with iNHL and 8 with CLL. All patients received the compound of formula I, either 100 mg orally twice per day (BID) or 150 mg orally twice per day (BID) for as long as the patient was benefiting. Patients also received either rituximab 375 mg/m^2 administered weekly for 8 weeks, starting on Day 1 of Cycle 1, or bendamustine 90 mg/m^2 administered on Days 1 and 2 of each cycle for 6 cycles. Tumor response was evaluated according to standard criteria."}}, "note": "Entries after “also recorded” stand apart in the source; their conditions may differ. Read-outs that look alike come from different tables or passages of the source."}
{"smiles": "CC[C@H](Nc1ncnc2[nH]cnc12)c1nc2cccc(F)c2c(=O)n1-c1ccccc1", "note": "[Compound I, 5-fluoro-3-phenyl-2-[1-(9H-purin-6-ylamino)-propyl]-3H-quinazolin-4-one]", "values": [{"measurement": "EC50", "setting": "PI3Kα", "result": "> 20", "unit": "µM"}, {"measurement": "phosphorylation and expression of AKT and ERK1/2 in HuVEC", "setting": "AKT and ERK1/2", "result": "markedly down regulated"}, {"measurement": "mean plasma level of CCL3", "setting": "CLL patients; Day28+, baseline 186 pg/mL, 14 CLL patients", "result": 29, "unit": "pg/mL"}, {"measurement": "mean plasma level of CXCL13", "setting": "CLL patients; Day28+, baseline 316 pg/mL, 14 CLL patients", "result": 40, "unit": "pg/mL"}, {"measurement": "mean plasma level of TNFα", "setting": "CLL patients; Day28+, baseline 104, 14 CLL patients", "result": 29, "unit": "pg/mL"}, {"measurement": "mean plasma level of CCL4", "setting": "CLL patients; Day28+, baseline 303, 14 CLL patients", "result": 70, "unit": "pg/mL"}, {"measurement": "mean plasma level of CCL22", "setting": "CLL patients; Day28+, baseline 1067, 14 CLL patients", "result": 533, "unit": "pg/mL"}, {"measurement": "down-regulation of pAkt(T308) in peripheral CLL cells", "setting": "CLL patients; patients on treatment, n=12", "result": "> 90", "unit": "%"}, {"measurement": "decrease in lymphadenopathy", "setting": "CLL", "result": 38, "unit": "%"}, {"measurement": "decrease in lymphocytosis", "setting": "CLL", "result": 55, "unit": "%"}, {"measurement": "pAKT levels in DLBCL cell lines", "setting": "DLBCL cell lines", "result": "reduces pAKT levels in several DLBCL cell lines"}, {"measurement": "dose-limiting toxicities", "setting": "[1]", "result": "No dose-limiting toxicities related to the compound of formula I were observed"}, {"measurement": "production of IgM", "setting": "[2]", "result": "completely prevent production of IgM"}, {"measurement": "VEGF transcription", "setting": "[3]; N=13", "result": "reversible by treatment with the compound of formula I"}, {"measurement": "b-FGF transcription", "setting": "[3]; N=15", "result": "prevented this up-regulation"}, {"measurement": "mRNA of CD40, CD86, CD154 and CD80", "setting": "[3]; N=15, p<0.009", "result": "prevent the increase in mRNA of CD40, CD86, CD154 and CD80 promoted by lenalidomide"}, {"measurement": "LB cell growth", "setting": "LB cells", "result": "LB cell growth is reduced"}, {"measurement": "apoptosis of CLL cells from poor prognosis patients", "setting": "[4]", "result": "induced apoptosis was seen"}, {"measurement": "apoptosis of CLL cells from refractory/relapsed patients", "setting": "[4]", "result": "induced apoptosis was also seen to be effective"}, {"measurement": "apoptosis of CLL patient cells", "setting": "[4]; 96 hours", "result": "dose-dependent cytotoxicity; also recorded: results in apoptosis and the result appears to be dose-dependent"}, {"measurement": "apoptosis of CLL cells from poor prognosis patients", "setting": "[4]; listed as compound I", "result": "increased apoptosis"}, {"measurement": "apoptosis of CLL cells from refractory/relapsed patients", "setting": "[4]; listed as compound of formula I", "result": "increased apoptosis"}, {"measurement": "LC3 staining", "setting": "INA-6 and LB MM cells; 5 μM, 6 h, INA-6 and LB", "result": "markedly increased LC 3 staining"}, {"measurement": "LC3-II and Beclin1 protein", "setting": "INA-6 and LB MM cells; INA-6, 6 h", "result": "markedly increased LC3-II and Beclin1 protein"}, {"measurement": "acidic vesicular organelle (AVO) development", "setting": "INA-6 and LB MM cells; acridine orange staining, LB and INA-6", "result": "development of AVOs"}, {"measurement": "dose-limiting toxicities", "setting": "[5]", "result": "No dose-limiting toxicities related to the compound of formula I were observed"}]}
